The values below come from patent US10562869B2, “Oxadiazole compounds” (REMYND NV, priority 2014, dated 2020).

The subject of the experiment is M17_3SYN cells. Description: Paraquat-induced cytotoxicity (LDH) in α-synuclein over-expressing M17_3SYN neuroblastoma cells. The experiment is classed as cell-based, human. The conditions noted are these: Homo sapiens, Neuroblastoma cell, 48 h, toxicity inhibition (LDH) in M17_3SYN cells challenged with 6 mM paraquat, 2 days; read-out: SYN EC50. From the text: A α-synuclein expression plasmid was constructed by subcloning the NcoI/XhoI fragment from 212T-SYN(WT) (Griffioen et al., Biochem Biophys Acta (2006) 1762(3):312-318) containing the cDNA of human wild type α-synuclein correspondingly into a standard mammalian expression vector pcDNA3.1 resulting in plasmid pcDNA3.1-SYNwt. Plasmids pcDNA3.1 and pcDNA3.1-SYNwt were transfected into human neuroblastoma cells (BE-M17; ATCC No. CRL-2267™) using lipofectamine reagent and subsequently, independent clonal cell lines with the plasmids stably integrated into the genome were selected by antibiotic resistance selection (Geneticin (G418)), resulting in cell lines M17.pcDNA3 and M17_3SYN. Overexpression of α-synuclein in the M17_3SYN cell line was confirmed by Western blot analysis.
Due to the high levels of α-synuclein, M17_3SYN cells were sensitive to paraquat, a well-known risk factor Parkinson's disease and of synuclein-dependent neuronal degeneration. Cytotoxicity of cells was measured by quantification of lactate dehydrogenase (LDH) levels. In dead cells, LDH leaked out of the cells into the medium due to a loss of plasma-membrane integrity.
[…], primary pre-cultures of M17.pcDNA3 (as possible control) and M17_3SYN cells were prepared, starting from a stock culture, at a density of 20.000-40.000 cells/cm2 in culture medium (Opti-MEM® Reduced Serum Medium with Phenol Red (Invitrogen, Cat. 31985-047) supplemented with 10% FCS, 1 mM sodium pyruvate, 1×NEAA, 500 μg/ml G418 and 0.5×antibiotic/antimycotic (ABAM)). 3 days later these primary pre-cultures were used as a starting point to make secondary pre-cultures at a density of 50.000-100.000 cells/cm^2. At the day of the experiment these secondary precultures were diluted to ˜0.5·10^6 cells/ml in detection medium (Opti-MEM® Reduced-Serum Medium without Phenol Red (Invitrogen, Cat. 11085-021) supplemented with 10% FCS, 1 mM sodium pyruvate, 1×NEAA, 500 μg/ml G418 and 0.5×ABAM) and 60 μL of this suspension was dispensed per well into a 96-well microtiter plate. After 3 hours of incubation at 37° C./5% CO2 an equal volume of detection medium containing a final concentration of 6 mM Paraquat was added and subsequently incubated for 2 days at 37° C./5% CO2. Then LDH activity was determined using the Promega Cytotox 96 Non-Radioactive cytotoxicity assay (Promega, Cat. G1780), according to the manufacturer's instructions. Cytotoxicity was defined as the ratio of LDH relative to the total LDH in the cells and supernatant.
The assay described above using the M17_3SYN cell line allowed screening compounds for their ability to decrease cytotoxicity in PQ-challenged cells. Compounds of the invention were tested for their ability to decrease toxicity at different concentrations, ranging from low non-effective concentrations to high effective concentrations. Afterwards, a dose-dependent inhibition curve was used to calculate the EC50. A compound was considered to be active in this test when it inhibited toxicity by more than 20% relative to untreated M17_3SYN cells at a concentration of 10 μM or lower.

For orientation: EC50 means the concentration needed to bring the measured effect to its halfway point. In the case of `O=S(=O)(c1ccc(F)cc1)N1CCN(c2nc(Cc3cccc(F)c3)no2)CC1` [Cmpd085, 1-(4-Fluoro-benzenesulfonyl)-4-[3-(3-fluoro-benzyl)-[1,2,4]oxadiazol-5-yl]-piperazine], the EC50 amounted to 0.25 µM. `O=S(=O)(c1ccc(OC(F)F)cc1)N1CCN(c2nc(C(F)(F)c3ccccc3)no2)CC1` [Cmpd158, 1-(4-Difluoromethoxy-benzenesulfonyl)-4-[3-(difluoro-phenyl-methyl)-[1,2,4]oxadiazol-5-yl]-piperazine]: the EC50 came out at 0.031 µM.

`O=S(=O)(c1ccc(OC(F)(F)F)cc1)N1CCN(c2nc(Cc3cccc(F)c3)no2)CC1` [Cmpd087, 1-[3-(3-Fluoro-benzyl)-[1,2,4]oxadiazol-5-yl]-4-(4-trifluoromethoxy-benzenesulfonyl)-piperazine]: the EC50 was found to be 0.497 µM. Take `O=c1[nH]c2cc(S(=O)(=O)N3CCN(c4nc(Cc5cccc(Cl)c5)no4)CC3)ccc2o1` [Cmpd077, 5-{4-[3-(3-Chloro-benzyl)-[1,2,4]oxadiazol-5-yl]-piperazine-1-sulfonyl}-3H-benzooxazol-2-one]: the concentration giving a half-maximal response (EC50) worked out at 0.139 µM.

Take `COc1ccc(S(=O)(=O)N2CCN(c3nc(C(F)(F)c4ccc(Cl)cc4)no3)CC2)cc1` [Cmpd142, 1-{3-[(4-Chloro-phenyl)-difluoro-methyl]-[1,2,4]oxadiazol-5-yl}-4-(4-methoxy-benzenesulfonyl)-piperazine]: the EC50 was 0.024 µM. Next, `O=S(=O)(c1ccc(OC(F)F)cc1)N1CCN(c2nc(C3C[C@@H]4CC[C@H]3C4)no2)CC1` (stereo partly drawn) [Cmpd192, 3-((1 S,4R)-bicyclo[2.2.1]heptan-2-yl)-5-(4-((4-(difluoromethoxy)phenyl)sulfonyl)piperazin-1-yl)-1,2,4-oxadiazole]: 0.164 µM; `Cc1ccc(-c2noc(N3CCN(S(=O)(=O)c4ccc(C(F)(F)F)cc4)CC3)n2)cc1` [Cmpd016, 3-(p-Tolyl)-5-(4-((4-(trifluoromethyl)phenyl)sulfonyl)piperazin-1-yl)-1,2,4-oxadiazole]: 0.009 µM; `O=S(=O)(c1ccc(OC(F)F)cc1)N1CCN(c2nc(C(F)(F)c3ccc(F)cc3)no2)CC1` [Cmpd148, 1-{3-[Difluoro-(4-fluoro-phenyl)-methyl]-[1,2,4]oxadiazol-5-yl}-4-(4-difluoromethoxy-benzenesulfonyl)-piperazine]: 0.034 µM. For the compound `CCOc1ccc(S(=O)(=O)N2CCN(c3nc(C(F)(F)c4ccc(Cl)cc4)no3)CC2)cc1` [Cmpd143, 1-{3-[(4-Chloro-phenyl)-difluoro-methyl]-[1,2,4]oxadiazol-5-yl}-4-(4-ethoxy-benzenesulfonyl)-piperazine], the EC50 is 0.025 µM. Next, `O=S(=O)(c1cccc(C(F)(F)F)c1)N1CCN(c2nc(Cc3cccc(F)c3)no2)CC1` [Cmpd088, 1-[3-(3-Fluoro-benzyl)-[1,2,4]oxadiazol-5-yl]-4-(3-trifluoromethyl-benzenesulfonyl)-piperazine]: 1.84 µM; `COc1ccc(S(=O)(=O)N2CCN(c3nc(Cc4ccc(Cl)cc4)no3)CC2)cc1` [Cmpd052, 1-[3-(4-Chloro-benzyl)-[1,2,4]oxadiazol-5-yl]-4-(4-methoxy-benzenesulfonyl)-piperazine]: 0.024 µM. For `CCOc1ccc(S(=O)(=O)N2CCN(c3nc(C4(c5ccc(Cl)cc5)CC4)no3)CC2)cc1` [Cmpd139, 1-{3-[1-(4-Chloro-phenyl)-cyclopropyl]-[1,2,4]oxadiazol-5-yl}-4-(4-ethoxy-benzenesulfonyl)-piperazine], the half-maximal effective concentration (EC50) was found to be 0.356 µM.

Regarding `CC[C@H](c1ccccc1)c1noc(N2CCN(S(=O)(=O)c3ccc(OC)cc3)CC2)n1` [Cmpd051, 1-(4-Methoxy-benzenesulfonyl)-4-[3-((R)-1-phenyl-propyl)-[1,2,4]oxadiazol-5-yl]-piperazine], the EC50 amounted to 0.046 µM. Next, `O=S(=O)(c1ccc(OC(F)F)cc1)N1CCN(c2nc(Cc3ccccc3)no2)CC1` [Cmpd039, 1-(3-Benzyl-[1,2,4]oxadiazol-5-yl)-4-(4-difluoromethoxy-benzenesulfonyl)-piperazine]: 0.011 µM. Next, `CCOc1ccc(S(=O)(=O)N2CCN(c3nc(Cc4ccc(F)c(F)c4)no3)CC2)cc1` [Cmpd100, 1-[3-(3,4-Difluoro-benzyl)-[1,2,4]oxadiazol-5-yl]-4-(4-ethoxy-benzenesulfonyl)-piperazine]: 0.13 µM; `CCOc1ccc(S(=O)(=O)N2CCN(c3nc(CC(F)(F)F)no3)CC2)cc1` [Cmpd166, 5-(4-((4-Ethoxyphenyl)sulfonyl)piperazin-1-yl)-3-(2,2,2-trifluoroethyl)-1,2,4-oxadiazole]: 0.368 µM; `COc1ccc(S(=O)(=O)N2CCN(c3nc(Cc4ccnc(C)c4)no3)CC2)cc1` [Cmpd169, 1-(4-Methoxy-benzenesulfonyl)-4-[3-(2-methyl-pyridin-4-ylmethyl)-[1,2,4]oxadiazol-5-yl]-piperazine]: 0.034 µM. Next, `CCOc1ccc(S(=O)(=O)N2CCN(c3nc(Cc4ccc(Cl)cc4)no3)CC2)cc1` [Cmpd053, 1-[3-(4-Chloro-benzyl)-[1,2,4]oxadiazol-5-yl]-4-(4-ethoxy-benzenesulfonyl)-piperazine]: 0.031 µM. As to `O=S(=O)(c1ccc(OC(F)F)cc1)N1CCN(c2nc(Cc3cccc(F)c3)no2)CC1` [Cmpd092, 1-(4-Difluoromethoxy-benzenesulfonyl)-4-[3-(3-fluoro-benzyl)-[1,2,4]oxadiazol-5-yl]-piperazine], the EC50 came out at 0.047 µM. Next, `CCOc1ccc(S(=O)(=O)N2CCN(c3nc(Cc4cccc(Cl)c4)no3)CC2)cc1` [Cmpd073, 1-[3-(3-Chloro-benzyl)-[1,2,4]oxadiazol-5-yl]-4-(4-ethoxy-benzenesulfonyl)-piperazine]: 0.033 µM; `O=S(=O)(c1ccc(OC(F)F)cc1)N1CCN(c2nc(C3(c4ccc(Cl)cc4)CC3)no2)CC1` [Cmpd140, 1-{3-[1-(4-Chloro-phenyl)-cyclopropyl]-[1,2,4]oxadiazol-5-yl}-4-(4-difluoromethoxy-benzenesulfonyl)-piperazine]: 0.044 µM. For `O=S(=O)(c1ccc(OC(F)F)cc1)N1CCN(c2nc(Cc3ccc(Cl)cc3)no2)CC1` [Cmpd054, 1-[3-(4-Chloro-benzyl)-[1,2,4]oxadiazol-5-yl]-4-(4-difluoromethoxy-benzenesulfonyl)-piperazine] the value was 0.019 µM; for `COc1ccc(S(=O)(=O)N2CCN(c3nc(C4C[C@@H]5CC[C@H]4C5)no3)CC2)cc1` (stereo partly drawn) [Cmpd190, 3-((1S,4R)-bicyclo[2.2.1]heptan-2-yl)-5-(4-((4-methoxyphenyl)sulfonyl)piperazin-1-yl)-1,2,4-oxadiazole], 0.215 µM.

On to `COc1ccc(S(=O)(=O)N2CCN(c3nc(COc4ccc(Cl)cc4)no3)CC2)cc1` [Cmpd200, 3-((4-Chlorophenoxy)methyl)-5-(4-((4-methoxyphenyl)sulfonyl)piperazin-1-yl)-1,2,4-oxadiazole], for which the 50% effective concentration (EC50) was found to be 0.022 µM. Next, `COc1ccc(S(=O)(=O)N2CCN(c3nc(C(C)(C)C)no3)CC2)cc1` [Cmpd209, 3-(Tert-butyl)-5-(4-((4-methoxyphenyl)sulfonyl)piperazin-1-yl)-1,2,4-oxadiazole]: 0.296 µM. For `COc1ccc(S(=O)(=O)N2CCN(c3nc(C(C)(C)c4cccc(Cl)c4)no3)CC2)cc1` [Cmpd152, 1-{3-[1-(3-Chloro-phenyl)-1-methyl-ethyl]-[1,2,4]oxadiazol-5-yl}-4-(4-methoxy-benzenesulfonyl)-piperazine] the value was 0.001 µM; for `COc1ccc(S(=O)(=O)N2CCN(c3nc(COc4ccccc4)no3)CC2)cc1` [Cmpd202, 5-(4-((4-Methoxyphenyl)sulfonyl)piperazin-1-yl)-3-(phenoxymethyl)-1,2,4-oxadiazole], 0.011 µM. Turning to `CSc1ccc(S(=O)(=O)N2CCN(c3nc(CC(F)(F)F)no3)CC2)cc1` [Cmpd168, 5-(4-((4-(Methylthio)phenyl)sulfonyl)piperazin-1-yl)-3-(2,2,2-trifluoroethyl)-1,2,4-oxadiazole], the half-maximal effective concentration (EC50) was 0.198 µM.
